The supplement of paper PMC10307832

How the values were obtained:
Assay in all cases: relative viability (nuclei count vs DMSO), 5 days (fraction); higher = more cells survive
UMC-11 = system: UMC-11
How it was run: (§1)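 Dosing by pin tool came one day after lung cancer cell lines were seeded in 1536-well plates, using either one drug or a fixed anchor-drug dose plus five library-drug doses (not always all listed) in √10 steps. After 5 days, nuclei were counted on 4× images. Relative viability is treated-well nuclei count divided by vehicle-well nuclei count, and values are medians of duplicate plates.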

ABC-1 = system: ABC-1
How it was run: as §1

NCI-H2085 = system: NCI-H2085
How it was run: as §1

NCI-H1975 = system: NCI-H1975
How it was run: as §1

COR-L 105 = system: COR-L 105
How it was run: as §1

EMC-BAC-2 = system: EMC-BAC-2
How it was run: as §1

NCI-H1915 = system: NCI-H1915
How it was run: as §1

NCI-H322M = system: NCI-H322M
How it was run: as §1

NCI-H358 = system: NCI-H358
How it was run: as §1

NCI-H3122 = system: NCI-H3122
How it was run: as §1

HCC-78 = system: HCC-78
How it was run: as §1

EPLC-272H = system: EPLC-272H
How it was run: as §1

LXF-289 = system: LXF-289
How it was run: as §1

HCC-15 = system: HCC-15
How it was run: as §1

ChaGo-K-1 = system: ChaGo-K-1
How it was run: as §1

NCI-H1755 = system: NCI-H1755
How it was run: as §1

NCI-H2023 = system: NCI-H2023
How it was run: as §1

NCI-H1666 = system: NCI-H1666
How it was run: as §1

NCI-H441 = system: NCI-H441
How it was run: as §1

NCI-H2126 = system: NCI-H2126
How it was run: as §1

In the case of `CC(=O)O[C@@]12CO[C@@H]1C[C@H](O)[C@@]1(C)C(=O)[C@H](O)C3=C(C)[C@@H](OC(=O)[C@H](O)[C@@H](NC(=O)OC(C)(C)C)c4ccccc4)C[C@@](O)([C@@H](OC(=O)c4ccccc4)[C@H]21)C3(C)C` [Docetaxel] + Nc1ncn([C@H]2C[C@H](O)[C@@H](CO)O2)c(=O)n1 [Decitabine] (partner 2 µM), the relative viability (UMC-11; first compound 0.0002 µM) is reported as 0.399, the relative viability (UMC-11; first compound 0.000632 µM) is reported as 0.613 and the relative viability (UMC-11; first compound 0.002 µM) is reported as 0.401. The relative viability (UMC-11; first compound 0.006325 µM) was 0.345, the relative viability (UMC-11; first compound 0.02 µM) was 0.238 and the relative viability (ABC-1; first compound 0.0002 µM) was 1.04. For the same compound, the relative viability (ABC-1; first compound 0.000632 µM) was 0.923, the relative viability (ABC-1; first compound 0.002 µM) was 1.01 and the relative viability (ABC-1; first compound 0.006325 µM) was 0.618. The relative viability (ABC-1; first compound 0.02 µM) was 0.416, the relative viability (NCI-H2085; first compound 0.0002 µM) was 0.539 and the relative viability (NCI-H2085; first compound 0.000632 µM) was 0.612. The relative viability (NCI-H2085; first compound 0.002 µM) was 0.552, the relative viability (NCI-H2085; first compound 0.006325 µM) was 0.459 and the relative viability (NCI-H2085; first compound 0.02 µM) was 0.401. The relative viability (NCI-H1975; first compound 0.0002 µM) was 0.37, the relative viability (NCI-H1975; first compound 0.000632 µM) was 0.389 and the relative viability (NCI-H1975; first compound 0.002 µM) was 0.223. The relative viability (NCI-H1975; first compound 0.006325 µM) was 0.177, the relative viability (NCI-H1975; first compound 0.02 µM) was 0.122 and the relative viability (COR-L 105; first compound 0.0002 µM) was 0.666. The relative viability (COR-L 105; first compound 0.000632 µM) was 0.533, the relative viability (COR-L 105; first compound 0.002 µM) was 0.442 and the relative viability (COR-L 105; first compound 0.006325 µM) was 0.394. The relative viability (COR-L 105; first compound 0.02 µM) was 0.364, the relative viability (EMC-BAC-2; first compound 0.0002 µM) was 0.947 and the relative viability (EMC-BAC-2; first compound 0.000632 µM) was 0.811. For the same compound, the relative viability (EMC-BAC-2; first compound 0.002 µM) was 0.461, the relative viability (EMC-BAC-2; first compound 0.006325 µM) was 0.46 and the relative viability (EMC-BAC-2; first compound 0.02 µM) was 0.299. The relative viability (NCI-H1915; first compound 0.0002 µM) was 0.245, the relative viability (NCI-H1915; first compound 0.000632 µM) was 0.25 and the relative viability (NCI-H1915; first compound 0.002 µM) was 0.231. For the same compound, the relative viability (NCI-H1915; first compound 0.006325 µM) was 0.184, the relative viability (NCI-H1915; first compound 0.02 µM) was 0.124 and the relative viability (NCI-H322M; first compound 0.0002 µM) was 0.679. It also gave a relative viability (NCI-H322M; first compound 0.000632 µM) of 0.609, a relative viability (NCI-H322M; first compound 0.002 µM) of 0.613 and a relative viability (NCI-H322M; first compound 0.006325 µM) of 0.653. It also gave a relative viability (NCI-H322M; first compound 0.02 µM) of 0.553, a relative viability (NCI-H358; first compound 0.0002 µM) of 0.183 and a relative viability (NCI-H358; first compound 0.000632 µM) of 0.189. For the same compound, the relative viability (NCI-H358; first compound 0.002 µM) was 0.18, the relative viability (NCI-H358; first compound 0.006325 µM) was 0.135 and the relative viability (NCI-H358; first compound 0.02 µM) was 0.116. The relative viability (NCI-H3122; first compound 0.0002 µM) was 0.441, the relative viability (NCI-H3122; first compound 0.000632 µM) was 0.409 and the relative viability (NCI-H3122; first compound 0.002 µM) was 0.265. It also gave a relative viability (NCI-H3122; first compound 0.006325 µM) of 0.182, a relative viability (NCI-H3122; first compound 0.02 µM) of 0.126 and a relative viability (HCC-78; first compound 0.0002 µM) of 0.627. For the same compound, the relative viability (HCC-78; first compound 0.000632 µM) was 0.654, the relative viability (HCC-78; first compound 0.002 µM) was 0.458 and the relative viability (HCC-78; first compound 0.006325 µM) was 0.511. It also gave a relative viability (HCC-78; first compound 0.02 µM) of 0.353, a relative viability (EPLC-272H; first compound 0.0002 µM) of 0.364 and a relative viability (EPLC-272H; first compound 0.000632 µM) of 0.308. For the same compound, the relative viability (EPLC-272H; first compound 0.002 µM) was 0.179, the relative viability (EPLC-272H; first compound 0.006325 µM) was 0.127 and the relative viability (EPLC-272H; first compound 0.02 µM) was 0.0741. For the same compound, the relative viability (LXF-289; first compound 0.0002 µM) was 0.383, the relative viability (LXF-289; first compound 0.000632 µM) was 0.382 and the relative viability (LXF-289; first compound 0.002 µM) was 0.25. It also gave a relative viability (LXF-289; first compound 0.006325 µM) of 0.14, a relative viability (LXF-289; first compound 0.02 µM) of 0.118 and a relative viability (HCC-15; first compound 0.0002 µM) of 0.58. For the same compound, the relative viability (HCC-15; first compound 0.000632 µM) was 0.338, the relative viability (HCC-15; first compound 0.002 µM) was 0.217 and the relative viability (HCC-15; first compound 0.02 µM) was 0.191. It also gave a relative viability (ChaGo-K-1; first compound 0.0002 µM) of 0.461, a relative viability (ChaGo-K-1; first compound 0.000632 µM) of 0.548 and a relative viability (ChaGo-K-1; first compound 0.002 µM) of 0.381. For the same compound, the relative viability (ChaGo-K-1; first compound 0.006325 µM) was 0.276, the relative viability (ChaGo-K-1; first compound 0.02 µM) was 0.21 and the relative viability (NCI-H1755; first compound 0.0002 µM) was 0.772. The relative viability (NCI-H1755; first compound 0.000632 µM) was 0.788, the relative viability (NCI-H1755; first compound 0.002 µM) was 0.604 and the relative viability (NCI-H1755; first compound 0.006325 µM) was 0.463. The relative viability (NCI-H1755; first compound 0.02 µM) was 0.507, the relative viability (NCI-H2023; first compound 0.0002 µM) was 0.233 and the relative viability (NCI-H2023; first compound 0.000632 µM) was 0.161. For the same compound, the relative viability (NCI-H2023; first compound 0.002 µM) was 0.102, the relative viability (NCI-H2023; first compound 0.006325 µM) was 0.0989 and the relative viability (NCI-H2023; first compound 0.02 µM) was 0.0701. For the same compound, the relative viability (NCI-H1666; first compound 0.0002 µM) was 0.594, the relative viability (NCI-H1666; first compound 0.000632 µM) was 0.64 and the relative viability (NCI-H1666; first compound 0.002 µM) was 0.504. The relative viability (NCI-H1666; first compound 0.006325 µM) was 0.477, the relative viability (NCI-H1666; first compound 0.02 µM) was 0.425 and the relative viability (NCI-H441; first compound 0.0002 µM) was 0.25. The relative viability (NCI-H441; first compound 0.000632 µM) was 0.234, the relative viability (NCI-H441; first compound 0.002 µM) was 0.178 and the relative viability (NCI-H441; first compound 0.006325 µM) was 0.2. The relative viability (NCI-H441; first compound 0.02 µM) was 0.163, the relative viability (NCI-H2126; first compound 0.0002 µM) was 0.622 and the relative viability (NCI-H2126; first compound 0.000632 µM) was 0.548. The relative viability (NCI-H2126; first compound 0.002 µM) was 0.463 and the relative viability (NCI-H2126; first compound 0.006325 µM) was 0.387.
